Results reported in ChEMBL document CHEMBL3611970, “Synthesis and evaluation of isatin-β-thiosemicarbazones as novel agents against antibiotic-resistant Gram-positive bacterial species” (2015).

Experiments:
Format in all cases: functional
[1] = tested on: Staphylococcus aureus; assay: Antimicrobial activity against methicillin-resistant Staphylococcus aureus 309-1 clinical isolate after 16 hrs by broth microdilution method; conditions: 309-1, 16 h
[2] = tested on: Enterococcus faecalis; assay: Antimicrobial activity against Enterococcus faecalis VRE-309 after 16 hrs by broth microdilution method; conditions: VRE-309, 16 h
[3] = tested on: Klebsiella pneumoniae; assay: Antimicrobial activity against Klebsiella pneumoniae KP-249 clinical isolate after 16 hrs by broth microdilution method; conditions: KP-249, 16 h
[4] = tested on: Staphylococcus aureus; assay: Antimicrobial activity against Staphylococcus aureus ATCC 6538 after 16 hrs by broth microdilution method; conditions: ATCC 6538, 16 h
[5] = tested on: Staphylococcus aureus; assay: Antimicrobial activity against methicillin-resistant Staphylococcus aureus 8-21 clinical isolate after 16 hrs by broth microdilution method; conditions: 8-21, 16 h
[6] = tested on: Staphylococcus aureus; assay: Antimicrobial activity against methicillin-resistant Staphylococcus aureus 8-24 clinical isolate after 16 hrs by broth microdilution method; conditions: 8-24, 16 h
[7] = tested on: Staphylococcus aureus; assay: Antimicrobial activity against methicillin-resistant Staphylococcus aureus 309-6 clinical isolate after 16 hrs by broth microdilution method; conditions: 309-6, 16 h
[8] = tested on: Staphylococcus aureus; assay: Antimicrobial activity against methicillin-resistant Staphylococcus aureus 309-8 clinical isolate after 16 hrs by broth microdilution method; conditions: 309-8, 16 h
[9] = tested on: Staphylococcus aureus; assay: Antimicrobial activity against methicillin-resistant Staphylococcus aureus 6281 clinical isolate after 16 hrs by broth microdilution method; conditions: Staphylococcus aureus, 6281, 16 h
[10] = tested on: Pseudomonas aeruginosa; assay: Antimicrobial activity against Pseudomonas aeruginosa PAO1 after 16 hrs by broth microdilution method; conditions: PAO1, 16 h
[11] = tested on: Staphylococcus aureus; assay: Antimicrobial activity against methicillin-resistant Staphylococcus aureus 6-42 clinical isolate after 16 hrs by broth microdilution method; conditions: 6-42, 16 h
[12] = tested on: Staphylococcus aureus; assay: Antimicrobial activity against methicillin-resistant Staphylococcus aureus 309-4 clinical isolate after 16 hrs by broth microdilution method; conditions: 309-4, 16 h
[13] = tested on: Staphylococcus aureus; assay: Antimicrobial activity against methicillin-resistant Staphylococcus aureus Chaoyang clinical isolate after 16 hrs by broth microdilution method
[14] = tested on: Staphylococcus aureus; assay: Antimicrobial activity against methicillin-resistant Staphylococcus aureus 309-7 clinical isolate after 16 hrs by broth microdilution method; conditions: 309-7, 16 h
[15] = tested on: Staphylococcus aureus; assay: Antimicrobial activity against methicillin-resistant Staphylococcus aureus 309-3 clinical isolate after 16 hrs by broth microdilution method; conditions: 309-3, 16 h
[16] = tested on: Bacillus spizizenii; assay: Antimicrobial activity against Bacillus subtilis ATCC 6633 after 16 hrs by broth microdilution method; conditions: ATCC 6633, 16 h
[17] = tested on: Enterococcus faecalis; assay: Antimicrobial activity against vancomycin-susceptible Enterococcus faecalis after 16 hrs by broth microdilution method

Measured: MIC

Cc1ccc(NC(=S)N/N=C2\C(=O)Nc3c(Cl)cccc32)cc1
0.39 µg/mL: [13]
3.12 µg/mL: [2]
6.25 µg/mL: [17]
1.56 µg/mL: [4] | [6] | [7] | [9]
≤ 0.78 µg/mL: [16]
> 100 µg/mL: [3] | [10]
0.78 µg/mL: all other assays above

Cc1ccccc1NC(=S)N/N=C1\C(=O)Nc2c(Cl)cccc21
3.12 µg/mL: [2]
6.25 µg/mL: [17]
0.78 µg/mL: [5] | [11] | [13] | [14]
≤ 0.78 µg/mL: [16]
> 100 µg/mL: [3] | [10]
1.56 µg/mL: all other assays above

Cc1cccc(NC(=S)N/N=C2\C(=O)Nc3c(Cl)cccc32)c1
6.25 µg/mL: [17]
≤ 0.78 µg/mL: [16]
0.78 µg/mL: [1] | [5] | [11] | [13] | [14]
3.12 µg/mL: [2] | [9]
> 100 µg/mL: [3] | [10]
1.56 µg/mL: all other assays above

O=C1Nc2c(Br)cccc2/C1=N/NC(=S)Nc1ccc(F)cc1
3.12 µg/mL: [17]
> 100 µg/mL: [3] | [10]
0.39 µg/mL: [13] | [14]
≤ 0.78 µg/mL: [16]
1.56 µg/mL: [2] | [4] | [6] | [7] | [9]
0.78 µg/mL: all other assays above

O=C1Nc2c(Br)cccc2/C1=N/NC(=S)Nc1ccc(Cl)cc1
1.56 µg/mL: [2] | [4] | [6] | [7] | [9]
0.39 µg/mL: [13] | [14]
≤ 0.78 µg/mL: [16]
> 100 µg/mL: [3] | [10]
3.12 µg/mL: [17]
0.78 µg/mL: all other assays above

Cc1ccc(NC(=S)N/N=C2\C(=O)Nc3c(C)cccc32)cc1
> 100 µg/mL: [3] | [10]
≤ 0.78 µg/mL: [16]
6.25 µg/mL: [17]
1.56 µg/mL: [8] | [11] | [12] | [13] | [14]
3.12 µg/mL: all other assays above

Cc1cccc2c1NC(=O)/C2=N\NC(=S)Nc1ccc(Cl)cc1
> 100 µg/mL: [3] | [10]
0.78 µg/mL: [13]
3.12 µg/mL: [7] | [9] | [15] | [17]
1.56 µg/mL: all other assays above

Cc1cccc2c1NC(=O)/C2=N\NC(=S)Nc1ccc(F)cc1
0.78 µg/mL: [13] | [14]
≤ 0.78 µg/mL: [16]
3.12 µg/mL: [9] | [17]
> 100 µg/mL: [3] | [10]
1.56 µg/mL: all other assays above

Cc1ccccc1NC(=S)N/N=C1\C(=O)Nc2c(F)cccc21
6.25 µg/mL: [2] | [17]
3.12 µg/mL: [4] | [7] | [9] | [15]
> 100 µg/mL: [3] | [10]
≤ 0.78 µg/mL: [16]
1.56 µg/mL: all other assays above

O=C1Nc2c(F)cccc2/C1=N/NC(=S)Nc1ccc(F)cc1
3.12 µg/mL: [2] | [7] | [9] | [17]
> 100 µg/mL: [3] | [10]
0.78 µg/mL: [13]
1.56 µg/mL: all other assays above
